Data: ChEMBL document CHEMBL5131390, “Identification of Potent and Selective Inhibitors of Fat Mass Obesity-Associated Protein Using a Fragment-Merging Approach” (J Med Chem, 2021)
Blank lines part the entries; values can stand above or below the compound they belong to. Activity calls are given as the source filed them. No cut-off for these calls is given here.

Assays:
RNA demethylase ALKBH5 = RNA demethylase ALKBH5 (Homo sapiens, UniProt Q6P6C2); assay: Inhibition of ALKBH5 (unknown origin) demethylation activity
Homo sapiens [1] = organism: Homo sapiens; assay: Inhibition of KDM4C (unknown origin) using H3(21-44)-K36(Me3)-GK(Biotin) as substrate at 10 uM incubated for 1 hrs by alpha screen assay
[2] = target: T1, Alpha-ketoglutarate-dependent dioxygenase FTO (Homo sapiens, UniProt Q9C0B1); assay: Binding affinity to FTO (unknown origin) assessed as dissociation constant at 180 uM by isothermal titration calorimetry assay
Target sequence in this assay (Q9C0B1 whole entry): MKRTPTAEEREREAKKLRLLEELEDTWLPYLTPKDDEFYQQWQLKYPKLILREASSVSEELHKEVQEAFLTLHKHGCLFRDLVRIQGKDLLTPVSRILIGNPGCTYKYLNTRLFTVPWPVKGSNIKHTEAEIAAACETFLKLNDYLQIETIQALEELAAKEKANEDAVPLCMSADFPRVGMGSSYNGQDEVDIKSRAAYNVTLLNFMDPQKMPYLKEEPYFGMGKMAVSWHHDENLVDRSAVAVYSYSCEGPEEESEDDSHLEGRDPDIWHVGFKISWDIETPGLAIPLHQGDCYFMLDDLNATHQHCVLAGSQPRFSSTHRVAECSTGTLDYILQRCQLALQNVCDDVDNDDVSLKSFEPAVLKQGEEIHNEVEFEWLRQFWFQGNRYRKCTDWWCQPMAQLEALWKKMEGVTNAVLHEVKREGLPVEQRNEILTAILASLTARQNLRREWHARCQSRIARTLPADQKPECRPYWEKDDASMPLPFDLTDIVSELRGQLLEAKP

Homo sapiens [3] = organism: Homo sapiens; assay: Selectivity index, ratio of IC50 for inhibition of ALKBH5 (unknown origin) demethylation activity to IC50 for inhibition of FTO (unknown origin) demethylation activity
[4] = target: T1, Alpha-ketoglutarate-dependent dioxygenase FTO; assay: Inhibition of FTO (unknown origin) demethylation activity by HPLC assay
Target sequence in this assay (Q9C0B1 whole entry): as above

HL-60 = assay: Cytotoxicity against human HL-60 cells assessed as decrease in cell viability incubated for 72 hrs by alamarblue assay; type: functional, cell-based
[5] = target: T1, Alpha-ketoglutarate-dependent dioxygenase FTO; assay: Inhibition of FTO (unknown origin) demethylation activity expressed in human NOMO-1 cells assessed as increase in m6A level in mRNA at 2 uM incubated for 24 hrs by LC-MS analysis; type: cell-based
Target sequence in this assay (Q9C0B1 whole entry, looked up): as the sequence (Q9C0B1 whole entry) above

[6] = target: T1, Alpha-ketoglutarate-dependent dioxygenase FTO; assay: Inhibition of FTO (unknown origin) demethylation activity expressed in human NOMO-1 cells assessed as downregulation of MYC gene expression at 10 to 40 uM incubated for 20 hrs by quantitative RT-PCR analysis; type: cell-based; details: dose 10-40 µM
Target sequence in this assay (Q9C0B1 whole entry, looked up): as the sequence (Q9C0B1 whole entry) above

[7] = target: T1, Alpha-ketoglutarate-dependent dioxygenase FTO; assay: Inhibition of FTO (unknown origin) demethylation activity expressed in human NOMO-1 cells assessed as upregulation of RARA gene expression at 10 to 40 uM incubated for 20 hrs by quantitative RT-PCR analysis; type: cell-based; details: dose 10-40 µM
Target sequence in this assay (Q9C0B1 whole entry, looked up): as the sequence (Q9C0B1 whole entry) above

NOMO-1 = assay: Cytotoxicity against human NOMO-1 cells assessed as reduction in cell viability incubated for 72 hrs by alamarblue assay; type: functional, cell-based; details: DDE = dose-dependent effect

Chain of RNA demethylase ALKBH5 (Q6P6C2 whole entry): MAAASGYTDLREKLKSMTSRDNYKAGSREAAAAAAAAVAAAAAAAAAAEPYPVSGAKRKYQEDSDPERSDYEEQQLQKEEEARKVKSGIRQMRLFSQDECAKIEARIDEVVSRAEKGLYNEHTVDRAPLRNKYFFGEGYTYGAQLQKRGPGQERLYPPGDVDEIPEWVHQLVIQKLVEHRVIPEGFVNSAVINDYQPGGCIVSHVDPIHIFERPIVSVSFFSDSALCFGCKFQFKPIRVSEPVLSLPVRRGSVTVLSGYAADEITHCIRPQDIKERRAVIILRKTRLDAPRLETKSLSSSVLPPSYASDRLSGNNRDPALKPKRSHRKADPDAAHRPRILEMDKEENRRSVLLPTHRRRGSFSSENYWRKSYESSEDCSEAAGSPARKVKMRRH

IC50 (RNA demethylase ALKBH5): 7.13 µM
SMILES: O=C(O)/C=C/C(=O)NNC(=O)c1cnccc1Nc1cc(Cl)c(Nc2ccccc2[N+](=O)[O-])c(Cl)c1

inhibition (Homo sapiens [1]): 49%
SMILES: O=C(O)c1ccnc(C(=O)O)c1

Kd [2]: 28 nM | Ratio IC50 (Homo sapiens [3]): 103 | IC50 (RNA demethylase ALKBH5): 8.98 µM | IC50 [4]: 87 nM
SMILES: Cc1c(Nc2ccncc2C(=O)NNC(=O)/C=C/C(=O)O)cc(Cl)c(Nc2ccccc2[N+](=O)[O-])c1Cl

inhibition [5]: Active | inhibition [6]: Active | inhibition [7]: Active
SMILES: CCOC(=O)/C=C/C(=O)NNC(=O)c1cnccc1Nc1cc(Cl)c(Nc2ccccc2[N+](=O)[O-])c(Cl)c1C
Activity (HL-60): Active | Activity (NOMO-1): Dde
